{"source": "patent US11684598B2", "about": "“Use of cannabinoids in the treatment of epilepsy” (priority 2015, dated 2023)", "key": {"[1]": {"system": "PTZ-induced generalised seizures", "assay": "Acute PTZ-induced model of generalised seizure", "assay_type": "in vivo, rat", "protocol": "Adult male Wistar Kyoto rats were used in the acute PTZ model of seizure (>P24, 70-110 g). Animals were housed five per cage in a heat regulated room (21° C.) on a 12:12 h day/night cycle (lights on 0800) in 50% humidity and given ad libitum access to standard laboratory chow (PCD Mod C, Special Diet Services, Wiltham, UK) and water. All procedures were undertaken during white light hours.\nA PTZ (Sigma-Aldrich, Poole, UK) stock solution was made in 0.9% w/v NaCl for the experimental procedure.\nPTZ antagonises GABA inhibition via binding to the t-butyl-bicycl-phosphorothionate site of GABAA receptors. Moreover, this chemically-induced model can be indicative of effects against absence seizures. PTZ (90 mg/kg) was used to induce seizures in adult male Wistar rats (n=15 per group) with experiment dose randomised using a Latin square design. Animals were placed in their 6 L Perspex tanks and allowed to acclimatise to their environment for 10 min, before receiving one of the cannabinoid doses (see Table 5) in vehicle, or volume-matched dose of vehicle alone to serve as a negative control. 60 min after test compound or vehicle administration, animals were injected with PTZ (90 mg/kg, i.p.) to induce seizures and animal behaviour was recorded for 30 min.\nVideos of PTZ-induced seizures were scored offline with a standard seizure severity scale appropriate for generalised seizures (Table 6).\nVideos of seizure behaviour generated from the custom built observational system were scored offline according to seizure scales appropriate for PTZ model (Table 6) using Observer Video-Pro software (Noldus, Wageningen, The Netherlands). For the PTZ model of seizure, intra- and inter-observer agreements of behaviour scoring were assessed using the reliability analysis function of the observer Video-Pro software: 1 s tolerance window; Cohen's Kappa coefficient≥0.95.\nSpecific markers of seizure behaviour and development were assessed and compared between vehicle control and drug groups. The latency (s) to seizure onset and the percentage of animals that developed tonic-clonic seizures was noted (see Table 6). In addition, the maximum seizure severity and the percentage mortality in each group were determined for the acute PTZ model of generalised seizure.\nThe effect of drug on latency to seizure onset and maximum seizure severity were assessed using Krustal-Wallis with post-hoc Mann-Whitney U-tests. Drug effects on the percentage of animals that developed tonic-clonic seizures and percentage mortality were assessed using Chi-squared with post-hoc Fisher exact tests. In all cases, P≤0.05 was considered significant."}, "[2]": {"system": "D. discoideum growth upon R. planticola bacterial plates", "assay": "Bacterial plate screen", "assay_type": "cell-based, Dictyostelium discoideum", "settings": "CBDA 12.3 μM, CBD 16.7 μM; 4 days", "protocol": "Heat killed (75° C. for 30 minutes) R. planticola was spread onto the plates and ˜50 wild-type A×2 cells were added and left to grow at 22° C. Plates were checked regularly for colonies."}}}
{"compound": "C=C(C)[C@@H]1CCC(C)=C[C@H]1c1c(O)cc(CCCCC)cc1O", "note": "[CBD, Cannabidiol]", "values": [{"measurement": "effect on percentage mortality", "setting": "[1]; 100 mg/kg CBD (P≤0.01), 100 mg/kg CBDA (P=0.0656), CBD/CBDA ratio (P=0.0656)", "result": "significantly reduced"}, {"measurement": "effect on latency to seizure onset", "setting": "[1]; 100 mg/kg CBD (P≤0.05), CBD/CBDA 9:1 (P≤0.05), CBDA 100 mg/kg (P=0.0929)", "result": "significantly increasing latency to onset"}, {"measurement": "median score for the maximum seizure severity", "setting": "[1]; 100 mg/kg, PTZ 90 mg/kg i.p. 60 min after compound, scale of Table 6, n=15", "result": 5}, {"measurement": "cell survival (colony number) compared to control (solvent only)", "setting": "[2]", "result": "No difference in colony number"}]}
